Measurements published in the supplement of paper PMC5412046.
Counter-ions that a name gives are not always drawn.

Tests used:
SB.mhdgc-1 = assay: AC50 for growth inhibition (viability) (log10 M); higher = less potent; details: SB.mhdgc-1 (hereditary c.1380delA CDH1 gastric cancer)
Summary of the method: (§1)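 Values are log half-maximal activity concentrations from four-parameter fits of DMSO-normalised viability, restricted to high-quality curve classes. Patient-derived gastric cancer cells, hereditary or sporadic, were plated at 500 cells per 1536 well in 5 μL medium and given 23 nL compound in DMSO by pintool across 11 threefold dilutions, the top final concentration being 46 μM. Viability was read by ViewLux luminescence after 48 h and a 30 min CellTiter-Glo step at room temperature.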

SB.msgc-1 = assay: as above; details: SB.msgc-1 (sporadic gastric cancer)
Summary of the method: as §1

Structure (SMILES) | AC50 for growth inhibition (log10 M) (SB.mhdgc-1) | AC50 for growth inhibition (log10 M) (SB.msgc-1)
C[C@H]1O[C@H]([C@H](O)[C@@H]1O)N2\C=C(F)/C(=O)NC2=O [Doxifluridine] | -6.18 | -5.33
c1ccc(CNc2nc(NCc3ccccc3)c3ccccc3n2)cc1 | -5.03 | -5.03
N=C1S/C(=C\c2ccc(-c3ccc4c(c3)C(=O)NC4=O)o2)C(=O)N1c1ccc(Br)cc1 [Bioymifi] | -5.28 | -5.43
CC(C)(C)c1[nH]cnc1/C=c1\[nH]c(=O)/c(=C/c2ccccc2)[nH]c1=O [Plinabulin] | -7.62 | -6.07
COc1cc(NC(=O)c2ccc(-c3ccc(Cl)cc3)o2)cc(OC)c1 | -5.73 | -5.58
Cc1c(C(=O)NN2CCCCC2)nn(-c2ccc(Cl)cc2Cl)c1-c1ccc(Cl)cc1 [Rimonabant] | -4.78 | -4.63
Cc1ccc([N+](=O)[O-])cc1[S+](=O)([O-])N(C)/N=C/c1cnc2ccc(Br)cn12 [PIK-75] | -8.03 | -7.98
Nc1ncnc2c1nc(Cl)n2[C@@H]1O[C@H](CO)[C@@H](O)[C@H]1O [8-Cl-Ado] | -4.78 | -4.68
ClC1=CC\2=C(NC(=O)\C(=C2N[C@@H]3CN4CCC3CC4)C5=NC6=C([NH]5)C=CC=C6)C=C1 [CHIR-124] | -6.08 | -6.53
NC(=O)N1CCC(CC(=O)N2CCC([C@H]3c4ncc(Br)cc4CCc4cc(Cl)cc(Br)c43)CC2)CC1 [Lonafarnib] | -4.78 | -4.78
Cc1coc2c1C(=O)C(=O)c1c-2ccc2c1CCCC2(C)C [Tanshinone IIA] | -5.58 | -4.68
Cc1cc(Nc2nc(N[C@@H](C)c3ccc(F)cc3)c(C#N)cc2F)n[nH]1 [AZ-960] | -4.73 | -4.68
COc1c(C)c2c(c(O)c1C/C=C(\C)CCC(=O)O)C(=O)OC2 [Mycophenolic acid] | -5.48 | -5.93
c1nc2c(NC3CCCCC3)nc(Nc3ccc(N4CCOCC4)cc3)nc2[nH]1 [Reversine] | -4.63 | -4.73
NC/1=N/C(=O)N(/C=N1)[C@@H]2O[C@H](CO)[C@@H](O)[C@H]2O [5-Azacitidine] | -4.88 | -5.53
COc1cc([C@@H]2c3cc4c(cc3[C@@H](O[C@@H]3O[C@@H]5CO[C@@H](c6cccs6)O[C@H]5[C@H](O)[C@H]3O)[C@H]3COC(=O)[C@H]23)OCO4)cc(OC)c1O [Teniposide] | -7.13 | -6.03
Cc1n[nH]c2ccc(-c3cncc(OC[C@@H](N)Cc4ccccc4)c3)cc12 | -6.43 | -5.43
COC1CCC(C(=O)c2ccc3nc4c(cc3c2)CCCO4)CC1 (centres undefined) | -4.78 | -4.78
C[C@@H]1C[C@H]2[C@@H]3\C=C(C)/C4=C/C5=C(C[C@]4(C)[C@H]3[C@@H](O)C[C@]2(C)[C@@]1(O)C(=O)CO)C=N[N]5C6=CC=CC=C6 [Deacetyl cortivazol] | -5.63 | -5.08
CCNC(=O)Nc1ccc2ncc(Nc3ccc(C)cc3)nc2n1 | -7.43 | -6.43
C[C@]12CC[C@@H]3c4ccc(O)cc4CC[C@H]3[C@@H]1CC[C@@H]2O [Estradiol] | -5.28 | -4.93
C#C[C@]1(O)CC[C@H]2[C@@H]3CCc4cc(O)ccc4[C@H]3CC[C@@]21C [Ethinylestradiol] | -4.78 | -4.83
N[S+](=O)([O-])c1ccc(Nc2nc(OCC3CCCCC3)c3[nH]cnc3n2)cc1 [NU-6102] | -4.68 | -4.83
COC[C@H]1OC(=O)C2=COC3=C2[C@@]1(C)\C4=C(\[C@@H]5CC[C@H](O)[C@@]5(C)C[C@H]4OC(C)=O)C3=O [17_-hydroxy Wortmannin] | -5.53 | -5.58
Cn1c(=O)n(-c2ccc(C(C)(C)C#N)cc2)c2c3cc(-c4cnc5ccccc5c4)ccc3ncc21 [BEZ235] | -6.88 | -5.33
CO[C@H]1/C=C\C=C(\C)C(=O)NC2=CC(=O)C(NCCN(C)C)=C(C[C@@H](C)C[C@H](OC)[C@H](O)[C@@H](C)/C=C(/C)[C@@H]1OC(N)=O)C2=O [Alvespimycin hydrochloride] | -7.38 | -6.83
Cc1c(C(=O)c2cccc3ccccc23)c2cccc3c2n1[C@H](CN1CCOCC1)CO3 | -4.93 | -5.08
